Data published in US10471118B2, “Retinylamine derivitives for treatment of ocular disorders” (CASE WESTERN RESERVE UNIVERSITY, priority 2014, dated 2019).

Legend:
C57BL/6J wild-type mice = assay: ERG retinal function in C57BL/6J wild-type mice after oral gavage; assay type: in vivo; details: 1.75 μmol per mouse oral; for ERG signal compared with nontreated control: 6 h post-treatment; for ERG signal compared with untreated control: 24 h post treatment
Experimental: All ERG procedures were performed by published methods. For single-flash recording, the duration of white-light flash stimuli (from 20 μs to 1 ms) was adjusted to provide a range of illumination intensities (from −3.7 to 1.6 log cd s m-2). Three to five recordings were made at sufficient intervals between flash stimuli (from 3 s to 1 min) to allow recovery from any photobleaching effects.
Strong inhibition of retinoid cycle could cause temporary vision impairment. Electroretinograms (ERGs) were recorded to in retinal function in C57BL/6J wild-type mice at 6 and 24 h after oral gavage of RVG, RF or Ret-NH2 at a dose of 1.75 μmol per mouse.

RPE65 = molecular target: T1, RPE65 (Mus musculus, UniProt Q91ZQ5); assay: In vivo RPE65 inhibition: 11-cis-retinal regeneration after photo-bleach; details: 1.75 μmol per mouse oral 16 h prior to photo-bleach (7000 lux, 10 min), 24 h dark
T1 sequence (Q91ZQ5 2-533 limits assumed): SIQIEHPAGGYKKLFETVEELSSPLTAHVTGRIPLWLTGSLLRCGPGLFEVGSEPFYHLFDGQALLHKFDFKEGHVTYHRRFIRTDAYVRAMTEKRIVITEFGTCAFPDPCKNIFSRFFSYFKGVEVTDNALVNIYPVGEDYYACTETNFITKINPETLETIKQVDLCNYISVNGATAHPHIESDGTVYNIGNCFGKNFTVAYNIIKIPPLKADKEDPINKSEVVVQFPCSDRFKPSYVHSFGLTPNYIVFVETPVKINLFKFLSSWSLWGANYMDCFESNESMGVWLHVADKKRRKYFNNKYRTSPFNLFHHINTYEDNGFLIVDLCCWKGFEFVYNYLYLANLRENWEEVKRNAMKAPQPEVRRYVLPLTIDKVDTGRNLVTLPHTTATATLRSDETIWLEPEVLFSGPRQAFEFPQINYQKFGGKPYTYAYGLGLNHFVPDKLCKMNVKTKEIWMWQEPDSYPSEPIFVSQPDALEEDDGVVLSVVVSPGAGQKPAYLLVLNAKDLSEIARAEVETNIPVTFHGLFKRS
Experimental: The retinylamine derivatives (31 RVG and 3b RF) or Ret-NH2 were administered by oral gavage at same mole dose 1.75 μmol per mouse into dark-adapted C57BLwild-type female mice (n=3) at 16 h prior to photo-bleach. After photo-bleach (7000 lux, 10 min), mice were kept the dark room for 24 h to allow the visual cycle to recovery. Mice were then sacrificed and eyes were extracted for analysis. Mice without treatment prior to photo-bleach were set as control. Retinoid extraction was done by manually homogenizing eyes in 1 mL of 1:1 ethanol:PBS solution containing 40 mM hydroxylamine. Retinoids were extracted in 4 mL hexane, concentrated, and reconstituted to a volume of 200 μL. Normal-phase HPLC (Agilent-Zorbax SIL; 5 μm; 4.5×250 mm; flow rate of 1.4 mL/min; 90:10 hexane:ethyl acetate (v:v); detection at 325 nm) was utilized to analyze retinoid concentrations. In vivo RPE65 inhibition was analyzed by quantifying the amount of 11-cis-retinal within each eye.

[1] = Biodistribution of N-retinylamides and retinylamine derivatives in liver and eye after oral gavage; assay type: in vivo, mouse; details: for original drug detected in the eye: 2 h and 16 h
Experimental: Female C57BL mice (4-week-old) were randomly divided into seven groups, six treated groups and one control group. Free Ret-NH2 (3.5 μmol per mouse, dissolved in DMSO and dispersed in vegetable oil) or retinylamine derivatives (Ret-Gly, Ret-L-Val-Gly, Ret-L-Phe, Ret-L-Leu, Ret-L-Val, 3.5 μmol per mouse, dissolved in DMSO and dispersed in vegetable oil) was administered by gastric gavage, control group was only gavaged vegetable oil. Then at each predetermined time point (2 and 16 h after drug administration), 3 mice were sacrificed. The liver and eye balls were collected to determine tissue N-retinylamide content for pharmacokinetic analysis. A portion of the liver tissue (0.3-0.5 g) was weighed, homogenized in 2 mL 1:1 ethanol:PBS solution and the eye balls were similarly processed (eye balls were combined for 3 mice). N-Retinylamides were extracted in 4 mL hexane, concentrated, and reconstituted to a 300 μL volume for liver (200 μL for eye). Normal-phase HPLC (Agilent-Zorbax SIL; 5 μm; 4.5×250 mm; flow rate of 1.4 mL/min; 80:20 hexane:ethyl acetate (v:v); detection at 325 nm) was utilized to determine N-retinylamide concentration in these tissues.
Female C57BL mice (4-week-old) were randomly divided into seven groups, six treated groups and one control group. Free Ret-NH2 (3.5 μmol per mouse, dissolved in DMSO and dispersed in vegetable oil) or retinylamine derivative (Ret-Gly, Ret-L-Val-Gly, Ret-L-Phe, Ret-L-Leu, Ret-L-Val, 3.5 μmol per mouse, dissolved in DMSO and dispersed in vegetable oil) was administered by gastric gavage, control group was only gavaged vegetable oil. Then at each predetermined time point (2 and 16 h after drug administration), 3 mice were sacrificed. The liver and eye balls were collected to determine tissue drug content for pharmacokinetic analysis. A portion of the liver tissue (0.3-0.5 g) was weighed, homogenized in 2 mL 1:1 ethanol:PBS solution and the eye balls were similarly processed. Retinylamine or its derivative was extracted in 4 mL ethyl acetate, concentrated, and reconstituted to a 300 μL volume for liver (200 μL for eye). Reverse-phase HPLC (analytical C18 reverse column; 5 μm; 250 mm×4.6 mm; flow rate of 1.0 mL/min; 60:40 acetonitrile:H2O (v:v) with 0.05% trifluoroacetic acid; detection at 325 nm) was utilized to determine retinylamine or its derivative in these tissues. […]
No N-retinylamides were detected in the eye at 2 h for all treated mice. The concentration of N-retinylamides in the liver of all treated mice increased at 16 h post-treatment. […] The concentrations of the original drugs were also determined in the liver and eye at 2 h and 16 h (FIGS. 7C, D). All tested drugs, including Ret-NH2, were detected in liver and their concentrations decreased from 2 h to 16 h.

[2] = All-trans-retinal Schiff base formation; details: 0.2 mM drug with all-trans-retinal in ethanol 2 h at room temperature
Experimental: Incubate Ret-NH2 and retinylamine derivatives RVG, RF (0.2 mM) with all-trans-retinal (2 mM) in ethanol 2 h at room temperature, retinyl imines separated by reverse phase HPLC were identified on the basis of both their characteristic UV-vis spectra upon protonation and spectra obtained by mass spectrometry (MS). HPLC condition: analytical C18 reverse column; 5 μm; 250 mm×4.6 mm; flow rate of 0.5 mL/min; mobile phase acetonitrile:H2O (v:v) with 0.05% trifluoroacetic acid (0-15 min acetonitrile from 50% to 100%, 15-30 min 100% acetonitrile); detection at 325 nm.

[3] = 3.5 μmol per mouse oral, C57BL mice, 16 h

| Compound | ERG signal compared with nontreated control (C57BL/6J wild-type mice) | ERG signal compared with untreated control (C57BL/6J wild-type mice) | regeneration of 11-cis-retinal in the eye (RPE65) | original drug detected in the eye ([1]; 3.5 μmol per mouse oral) | metabolism in the eye ([1]; conclusion from biodistribution at 2 h and 16 h) | Schiff base formation with atRAL [2] | ERG signal in the retina (C57BL/6J wild-type mice; first 24 h after the treatment) | N-retinylamides in the eye [1, 3] | liver concentration of N-retinylamides [1, 3] |
| --- | --- | --- | --- | --- | --- | --- | --- | --- | --- |
| CC1=C(/C=C/C(C)=C/C=C/C(C)=C/CNC(=O)[C@@H](N)Cc2ccccc2)C(C)(C)CCC1 [RF, (S)-2-amino-N-((2E,4E,6E,8E)-3,7-dimethyl-9-(2,6,6-trimethylcyclohex-1-en-1-yl)nona-2,4,6,8-tetraen-1-yl)-3-phenylpropanamide] | attenuated ERG signal | recover to the magnitude of the untreated control mice | faster regeneration of 11-cis-retinal in the eye, and weaker inhibition of retinoid cycle than Ret-NH2 | only detected at 2 h | rapidly metabolized into inactive N-retinylamides in the eye | able to form Schiff base with atRAL | – | – | – |
| CC1=C(/C=C/C(C)=C/C=C/C(C)=C/CN)C(C)(C)CCC1 [Ret-NH2, (2E,4E,6E,8E)-3,7-dimethyl-9-(2,6,6-trimethylcyclohex-1-en-1-yl)nona-2,4,6,8-tetraen-1-amine] | – | – | much lower concentration of 11-cis-retinal than the untreated controls | No free Ret-NH2 was detected in the eye | – | able to form Schiff base with atRAL | no significant ERG signal was detected | – | – |
| CC1=C(/C=C/C(C)=C/C=C/C(C)=C/CNC(=O)[C@@H](NC(=O)CN)C(C)C)C(C)(C)CCC1 [RVG, (S)-2-(2-aminoacetamido)-N-((2E,4E,6E,8E)-3,7-dimethyl-9-(2,6,6-trimethylcyclohex-1-en-1-yl)nona-2,4,6,8-tetraen-1-yl)-3-methylbutanamide] | attenuated ERG signal | recover to the magnitude of the untreated control mice | faster regeneration of 11-cis-retinal in the eye, and weaker inhibition of retinoid cycle than Ret-NH2 | only detected at 16 h | – | able to form Schiff base with atRAL | – | no detectable N-retinylamides in the eye | lower liver concentration of N-retinylamides than RF and RL |
